Assay results from patent publication US11214803B2, “Modulators of YAP1 expression” (Ionis Pharmaceuticals, Inc., priority 2019, dated 2022).
Strand notation (5' to 3'): a small letter for the sugar, then the base; units joined by * are phosphorothioate-linked, units joined directly phosphodiester-linked; [ ] holds rarer units or linkages, { } end groups; capitals alone tell only the bases. k = constrained ethyl (cEt); [5mC] = 5-methylcytosine; d = 2'-deoxy (DNA)

System: Yap1 mRNA
Test: Antisense inhibition of human Yap1 in A-431 cells by cEt gapmers, single dose (Example 3, RTS36584)
Assay type: cell-based
Method in brief: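 Human epidermoid A-431 cells take up gapmer (2,000 nM, free uptake, ~48 h); Yap1 transcript is then assayed by qRT-PCR with RiboGreen normalization and reported relative to untreated cells. Gapmers carry cEt-modified wings, phosphorothioate linkages and 5-methylcytosine throughout.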

[1] = Table 35, Yap1 mRNA as percent of untreated control, 3-10-3 cEt gapmers targeting SEQ ID NO: 1 and 2, single dose
[2] = Table 13, A-431 cells, 5,000 cells per well, free uptake, 2,000 nM modified oligonucleotide, approx. 48 hours, RTS36584, normalized to RIBOGREEN, Yap1 mRNA relative to untreated control cells
[3] = Table 27, Yap1 mRNA by 3-10-3 cEt gapmers targeting SEQ ID NO.: 1, and 2, percent of untreated control
[4] = Table 10, A-431 cells, 5,000 cells per well, free uptake, 2,000 nM oligonucleotide, approx. 48 hours, primer probe set RTS36584, Yap1 mRNA normalized to RIBOGREEN, percent of untreated control
[5] = Table 26, Yap1 mRNA by 3-10-3 cEt gapmers targeting SEQ ID NO.: 1, and 2, percent of untreated control
[6] = Table 9, A-431 cells, 5,000 cells per well, free uptake, 2,000 nM, approximately 48 hours, RTS36584, normalized to RIBOGREEN, Yap1 mRNA relative to untreated control cells

1075381 (antisense kT*kA*kT*dT*dA*d[5mC]*d[5mC]*d[5mC]*dT*dA*d[5mC]*dT*d[5mC]*kA*kT*kA) [compound 1075381]
YAP1 (% UTC) [1]: 89 % UTC

958615 (antisense kT*kG*kG*dT*d[5mC]*dT*dT*dG*dT*dT*d[5mC]*dT*dT*kA*kT*kG) [Compound 958615]
YAP1 (% UTC) [2]: 3 % UTC

1075149 (kG*k[5mC]*kG*dG*dA*dA*dA*dA*dA*dA*d[5mC]*dA*d[5mC]*k[5mC]*kT*kA; antisense) [compound 1075149]
YAP1 (% UTC) [3]: 50 % UTC

1075821 (k[5mC]*kT*kT*dA*dA*d[5mC]*dT*dT*d[5mC]*d[5mC]*d[5mC]*dA*d[5mC]*kT*k[5mC]*kG; antisense) [compound 1075821]
YAP1 (% UTC) [3]: 22 % UTC

958808 (kA*kG*k[5mC]*dG*dA*dT*dT*dG*dG*d[5mC]*d[5mC]*dT*d[5mC]*k[5mC]*k[5mC]*kA; antisense) [Compound 958808]
YAP1 (% UTC) (Table 11, A-431 cells, 5,000 cells per well, free uptake, 2,000 nM oligonucleotide, approx. 48 hours, primer probe set RTS36584, Yap1 mRNA normalized to RIBOGREEN, percent of untreated control): 59 % UTC

958807 (kT*k[5mC]*kA*dT*dT*dG*dT*dA*dG*dT*d[5mC]*dT*dG*kT*k[5mC]*kT; antisense) [Compound 958807]
YAP1 (% UTC) [4]: 3 % UTC

1075532 (kA*k[5mC]*kT*dT*dA*dA*dT*dA*dG*dT*dT*dT*dA*kA*k[5mC]*k[5mC]; antisense) [compound 1075532]
YAP1 (% UTC) [5]: 121 % UTC

1075980 (k[5mC]*kA*kA*dT*dA*dT*d[5mC]*d[5mC]*dT*dA*d[5mC]*dA*d[5mC]*k[5mC]*kA*kT; antisense) [compound 1075980]
YAP1 (% UTC) [5]: 43 % UTC

958746 (antisense kG*kT*kT*dA*dT*d[5mC]*d[5mC]*dT*d[5mC]*dT*dA*dT*dA*kG*kT*k[5mC]) [Compound 958746]
YAP1 (% UTC) [6]: 22 % UTC

1074868 (kG*kT*kA*d[5mC]*d[5mC]*dT*dA*dA*d[5mC]*dA*dT*dA*dT*kG*kA*kG; antisense) [compound 1074868]
YAP1 (% UTC) (Table 34, Yap1 mRNA as percent of untreated control, 3-10-3 cEt gapmers targeting SEQ ID NO: 1 and 2, single dose): 74 % UTC

1074319 (antisense kG*k[5mC]*kT*dA*dA*d[5mC]*dT*d[5mC]*d[5mC]*dT*dG*dA*d[5mC]*kA*kT*kT) [compound 1074319]
YAP1 (% UTC) (Table 29, Yap1 mRNA as percent of untreated control, 3-10-3 cEt gapmers targeting SEQ ID NO.: 1, and 2): 47 % UTC

1074573 (DNA kA*kT*kT*dA*dT*dG*dA*dA*d[5mC]*d[5mC]*dT*dA*d[5mC]*kT*k[5mC]*kA) [compound 1074573]
YAP1 (% UTC) [3]: 14 % UTC

958534 (kT*kT*k[5mC]*dA*dG*d[5mC]*dA*dT*dA*dG*dA*dA*dG*kT*kA*kG; antisense) [Compound 958534]
YAP1 (% UTC) (Table 12, A-431 cells, 5,000 cells per well, free uptake, 2,000 nM modified oligonucleotide, approx. 48 hours, RTS36584, normalized to RIBOGREEN, Yap1 mRNA relative to untreated control cells): 3 % UTC

1075181 (kT*kT*kA*dT*dA*dT*dT*dA*d[5mC]*dT*dA*d[5mC]*dA*kA*k[5mC]*k[5mC]; antisense) [compound 1075181]
YAP1 (% UTC) [3]: 15 % UTC

1074988 (antisense kA*k[5mC]*k[5mC]*dG*d[5mC]*dG*dG*d[5mC]*dG*dG*dA*dG*dT*kG*kG*kA) [compound 1074988]
YAP1 (% UTC) [5]: 94 % UTC

958780 (antisense kT*k[5mC]*kA*dA*d[5mC]*dT*dA*d[5mC]*dT*dT*dT*dT*d[5mC]*kA*kG*k[5mC]) [Compound 958780]
YAP1 (% UTC) [2]: 24 % UTC

1076300 (kA*kA*kA*dA*dA*dA*dT*dG*dG*d[5mC]*dT*dT*d[5mC]*kA*k[5mC]*kG; antisense) [compound 1076300]
YAP1 (% UTC) [5]: 22 % UTC

1074476 (kT*kT*k[5mC]*d[5mC]*dG*dA*d[5mC]*dA*dA*dA*dA*d[5mC]*d[5mC]*kA*kA*k[5mC]; antisense) [compound 1074476]
YAP1 (% UTC) [5]: 18 % UTC

958567 (kT*k[5mC]*kA*dA*d[5mC]*d[5mC]*dT*dA*dT*dG*dA*dA*d[5mC]*kT*kA*kT; antisense) [Compound 958567]
YAP1 (% UTC) [4]: 3 % UTC

958706 (antisense kT*k[5mC]*kG*d[5mC]*dA*dT*dG*dG*d[5mC]*d[5mC]*dA*d[5mC]*dT*kG*k[5mC]*k[5mC]) [Compound 958706]
YAP1 (% UTC) [6]: 112 % UTC

1075285 (antisense kT*kA*kT*dA*d[5mC]*dA*dT*dA*dG*dT*d[5mC]*dA*dA*kT*kT*k[5mC]) [compound 1075285]
YAP1 (% UTC) [1]: 60 % UTC
